The IC50 is the concentration that gives 50% inhibition.

The target of experiment [1] is T1, Thromboxane-A synthase (Homo sapiens, UniProt P24557).
T1 sequence (P24557 whole entry): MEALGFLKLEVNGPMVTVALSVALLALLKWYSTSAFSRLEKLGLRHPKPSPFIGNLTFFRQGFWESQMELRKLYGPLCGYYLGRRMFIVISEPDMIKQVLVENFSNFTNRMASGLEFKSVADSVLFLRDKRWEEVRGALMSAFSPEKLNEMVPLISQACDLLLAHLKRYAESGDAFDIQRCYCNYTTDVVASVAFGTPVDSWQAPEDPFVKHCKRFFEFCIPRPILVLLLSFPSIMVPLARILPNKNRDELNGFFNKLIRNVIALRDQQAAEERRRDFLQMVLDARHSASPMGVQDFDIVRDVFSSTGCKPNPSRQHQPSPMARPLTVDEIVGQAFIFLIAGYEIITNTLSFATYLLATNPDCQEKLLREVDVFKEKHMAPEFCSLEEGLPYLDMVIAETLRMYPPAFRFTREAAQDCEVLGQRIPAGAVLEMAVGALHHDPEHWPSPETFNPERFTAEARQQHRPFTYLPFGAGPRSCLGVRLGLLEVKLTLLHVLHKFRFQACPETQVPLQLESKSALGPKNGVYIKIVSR
Nature of the experiment: Tested for inhibitory activity against intact human platelet TXA2 formation. Type of experiment: functional.

Experiment [2] addresses T1, Thromboxane-A synthase. Nature of the experiment: Compound was tested for inhibitory activity against human platelet microsomal TXA2 synthase.

As for `CCCOC(=O)c1ccc(COC(COCc2ccc(OC)cc2)Cn2ccnc2)cc1` (stereo unspecified), the IC50 at Thromboxane-A synthase [1] is 0.18 µM.

At Thromboxane-A synthase [1], `COC(=O)c1ccc(COC(COCc2ccc(OC)cc2)Cn2ccnc2)cc1` (stereo unspecified) returned an IC50 of 1.26 µM. Consider `COc1ccc(COCC(Cn2ccnc2)OCc2ccc(S(C)(=O)=O)cc2)cc1` (stereo unspecified), for which the IC50 against Thromboxane-A synthase [1] is 24.9 µM. Regarding `COc1ccc(COCC(Cn2ccnc2)OCc2ccc(C(=O)Oc3ccccc3)cc2)cc1` (stereo unspecified), at Thromboxane-A synthase [1], half-maximal inhibition (IC50) required 0.56 µM. Molecule `CCOC(=O)c1ccc(COCC(Cn2ccnc2)OCc2ccc(OC)cc2)cc1` (stereo unspecified) gave an IC50 at Thromboxane-A synthase [1] of 3.6 µM. Same read-out and setting: with `COc1ccc(COCC(Cn2ccnc2)OCc2ccc(C(N)=O)cc2)cc1` (stereo unspecified) the figure was 6 µM; with `COc1ccc(COCC(Cn2ccnc2)OCc2ccc3c(c2)COC3=O)cc1` (stereo unspecified), 6.2 µM. The same measure, in the same setting: the value for `COc1ccc(COCC(Cn2ccnc2)OCc2ccc(SC)cc2)cc1` (stereo unspecified) was 6.4 µM. Turning to `COc1ccc(COCC(Cn2ccnc2)OCc2ccc(C(=O)O)cc2)cc1` (stereo unspecified), the IC50 on Thromboxane-A synthase [2] came to 1.1 µM; at Thromboxane-A synthase [1] it was 6.7 µM. Consider `COc1ccc(COCC(Cn2ccnc2)OCc2ccc(C(=O)OC(C)C)cc2)cc1` (stereo unspecified), for which, at Thromboxane-A synthase [1], the IC50 was 1.61 µM. As for `COc1ccc(COCC(Cn2ccnc2)OCc2ccc(C(=O)OCc3ccccc3)cc2)cc1` (stereo unspecified), the IC50 on Thromboxane-A synthase [2] is 7.1 µM; against Thromboxane-A synthase [1], 1.49 µM. As for `CCCCOC(=O)c1ccc(COC(COCc2ccc(OC)cc2)Cn2ccnc2)cc1` (stereo unspecified), the IC50 at Thromboxane-A synthase [2] worked out at 2 µM; on Thromboxane-A synthase [1] it was 0.2 µM. For `CCNC(=O)c1ccc(COC(COCc2ccc(OC)cc2)Cn2ccnc2)cc1` (stereo unspecified), on Thromboxane-A synthase [1], the IC50 turned out to be 12.4 µM. For `COc1ccc(COCC(Cn2ccnc2)OCc2ccc(C(=O)N(C)C)cc2)cc1` (stereo unspecified), the midpoint of inhibition at Thromboxane-A synthase [1], the IC50, lay at 1.94 µM. In the case of `CCCCN(C)C(=O)c1ccc(COC(COCc2ccc(OC)cc2)Cn2ccnc2)cc1` (stereo unspecified), on Thromboxane-A synthase [1], the IC50 stood at 5.4 µM. This IC50 lies about 2.8-fold higher than the previous one.

Turning to `COc1ccc(COCC(Cn2ccnc2)OCc2ccc([S+](C)[O-])cc2)cc1` (stereo unspecified), the IC50 on Thromboxane-A synthase [1] came out at 8.6 µM. Against the preceding molecule, the IC50 is about 1.6-fold higher. The molecule `CCCCCCCCOC(=O)c1ccc(COC(COCc2ccc(OC)cc2)Cn2ccnc2)cc1` (stereo unspecified) displayed an IC50 against Thromboxane-A synthase [1] of 21 µM.

On Thromboxane-A synthase [1], `CCOC(=O)c1ccc(COCC(Cn2ccnc2)OCc2ccc(C(=O)OCC)cc2)cc1` (stereo unspecified) gave an IC50 of 0.7 µM.

For the molecule `COc1ccc(COCC(Cn2ccnc2)OCc2ccc(OC)cc2)cc1` (stereo unspecified), the IC50 against Thromboxane-A synthase [1] amounted to 9.9 µM. The molecule `CCOC(=O)c1cccc(COC(COCc2ccc(OC)cc2)Cn2ccnc2)c1` (stereo unspecified) yielded an IC50 against Thromboxane-A synthase [1] of 7.2 µM.

Consider `COc1ccc(COCC(Cn2ccnc2)OCc2ccc(C(=S)N(C)C)cc2)cc1` (stereo unspecified), for which the IC50 against Thromboxane-A synthase [1] is 12.4 µM. This IC50 lies about 1.7-fold higher than the previous one. `CCOC(=O)c1ccc(COC(COCc2ccc(OC)cc2)Cn2ccnc2)cc1` (stereo unspecified): the results for the IC50 against Thromboxane-A synthase [2] and against Thromboxane-A synthase [1] were 5.3 µM and 0.54 µM, respectively.

Values taken from ChEMBL document CHEMBL1123832, “Structure-activity relationships in an imidazole-based series of thromboxane synthase inhibitors” (J Med Chem, 1987).
